The values that follow come from ChEMBL document CHEMBL5034045, “Novel Macrocyclic Peptidylarginine Deiminase Type 4 (PAD4) Inhibitors” (ACS Med Chem Lett, 2022).

pIC50: −log10 of the molar value.

The target in the experiment is Protein-arginine deiminase type-4 (Homo sapiens, UniProt Q9UM07). As to the kind of experiment: Inhibition of human PAD4 using BAEE as substrate incubated for 30 mins by spectrophotometric based assay.
Protein-arginine deiminase type-4, sequence (Q9UM07 whole entry): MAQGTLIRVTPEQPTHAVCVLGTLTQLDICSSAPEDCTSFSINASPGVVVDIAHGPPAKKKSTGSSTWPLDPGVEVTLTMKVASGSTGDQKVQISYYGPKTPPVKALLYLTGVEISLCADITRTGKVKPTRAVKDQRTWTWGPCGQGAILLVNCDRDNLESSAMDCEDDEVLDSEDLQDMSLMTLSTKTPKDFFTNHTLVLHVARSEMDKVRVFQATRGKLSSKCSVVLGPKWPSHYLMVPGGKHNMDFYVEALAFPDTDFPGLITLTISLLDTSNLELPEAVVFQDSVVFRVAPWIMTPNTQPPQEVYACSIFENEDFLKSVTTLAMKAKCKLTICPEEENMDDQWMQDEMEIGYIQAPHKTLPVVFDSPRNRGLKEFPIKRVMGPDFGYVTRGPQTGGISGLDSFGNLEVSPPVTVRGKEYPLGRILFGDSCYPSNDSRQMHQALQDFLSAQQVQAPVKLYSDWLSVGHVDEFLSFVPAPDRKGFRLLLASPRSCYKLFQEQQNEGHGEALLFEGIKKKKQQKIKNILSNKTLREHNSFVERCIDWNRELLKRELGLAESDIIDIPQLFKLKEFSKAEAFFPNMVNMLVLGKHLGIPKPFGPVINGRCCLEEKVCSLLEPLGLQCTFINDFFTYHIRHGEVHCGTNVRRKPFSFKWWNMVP
As for `[2H]C1([2H])[C@H](N)[C@@H]2CC[C@@H](C2)N1C(=O)c1cc(OC)c2c(c1)nc(-c1cc3ccc4nc3n1CCCCCc1ccccc1C(=O)NC4C)n2C` (stereo partly specified), the pIC50 is 8.30.

In the case of `CC1NC(=O)[C@@H]2C[C@@]2(F)CCCC(F)(F)Cn2c(-c3nc4cc(C(=O)N5CCC[C@@H](N)[C@H]5C)cc(F)c4n3C3CC3)cc3ccc1nc32` (stereo partly specified), the pIC50 was 8.30.

As for `CC1NC(=O)[C@@H]2CC2CCCC(F)(F)Cn2c(-c3nc4cc(C(=O)N5CCC[C@@H](N)[C@H]5C)cc(Cl)c4n3C3CC3)cc3ccc1nc32` (stereo partly specified), the negative-log IC50 (pIC50) was 8.22. This pIC50 and that of the molecule before are within 0.2 log units of each other.

On to `COc1cc(C(=O)N2C[C@H](N)[C@@H]3CC[C@H]2C3)cc2nc(-c3cc4ccc5nc4n3CCCCCC3[C@H](C(=O)NC5C)C3(F)F)n(C)c12` (stereo partly specified), for which the pIC50 is 8.30.

As to `CC1NC(=O)c2cc3sccc3nc2CCCCCn2c(-c3nc4cc(C(=O)N5CCC[C@@H](N)[C@H]5C)cc(F)c4n3C3CC3)cc3ccc1nc32` (stereo partly specified), the pIC50 was 8.30.

`Cc1ccc2c(n1)CCCCCn1c(-c3nc4cc(C(=O)N5C[C@H](N)[C@@H]6CC[C@H]5C6)cc(F)c4n3C3CC3)cc3ccc(nc31)C(C)NC2=O` (stereo partly specified) had a pIC50 of 8.22.
